Results: ChEMBL document CHEMBL4417632, “Inhibitors of alpha-amino-beta-carboxymuconic acid semialdehyde decarboxylase” (2017)
The source made the active and inactive calls. No cut-off for these calls is given here.

Columns and labels:
[1] = Cytotoxicity in mouse AML-12 cells assessed as reduction inc ell viability at 10 nM to 300 uM incubated for 4 hrs by LDH release assay; assay type: cell-based
HepG2 = assay: Cytotoxicity against human HepG2 cells assessed as reduction in cell viability at 0.01 to 300 uM incubated for 4 hrs by LDH release assay; assay type: cell-based; conditions: hepg2, 4 h
[2] = molecular target: 2-amino-3-carboxymuconate-6-semialdehyde decarboxylase (Homo sapiens) (UniProt Q8TDX5); assay: Inhibition of ACMSD in human primary hepatocytes assessed as increase in NAD concentration at 0.5 uM following compound replacement every 24 hrs by LC-MS/MS analysis; assay type: cell-based
Chain of 2-amino-3-carboxymuconate-6-semialdehyde decarboxylase (Homo sapiens) (Q8TDX5 whole entry, looked up): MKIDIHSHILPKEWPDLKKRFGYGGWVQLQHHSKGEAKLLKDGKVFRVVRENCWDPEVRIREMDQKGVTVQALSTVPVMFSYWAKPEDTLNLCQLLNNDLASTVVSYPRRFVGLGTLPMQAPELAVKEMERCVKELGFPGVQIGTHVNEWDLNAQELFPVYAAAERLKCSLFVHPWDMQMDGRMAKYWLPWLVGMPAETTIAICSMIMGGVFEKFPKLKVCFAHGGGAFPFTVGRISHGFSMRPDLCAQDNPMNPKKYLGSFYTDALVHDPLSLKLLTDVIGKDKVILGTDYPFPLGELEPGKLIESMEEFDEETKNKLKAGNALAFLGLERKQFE

[3] = molecular target: 2-amino-3-carboxymuconate-6-semialdehyde decarboxylase (Homo sapiens) (UniProt Q8TDX5); assay: Inhibition of ACMSD in human primary hepatocytes assessed as increase in NAD concentration at 5 uM following compound replacement every 24 hrs by LC-MS/MS analysis; assay type: cell-based
[4] = molecular target: 2-amino-3-carboxymuconate-6-semialdehyde decarboxylase (Homo sapiens) (UniProt Q8TDX5); assay: Inhibition of ACMSD in human primary hepatocytes assessed as increase in NAD concentration at 250 uM following compound replacement every 24 hrs by LC-MS/MS analysis; assay type: cell-based
MDCK [5] = assay: Inhibition of cisplatin-induced apoptosis in MDCK cells assessed as reduction in caspase 3/7 activity at 100 uM pre-incubated for 1 hr before cisplatin challenge for 16 hrs by luminescence based assay; assay type: functional, cell-based; conditions: Canis lupus familiaris
MDCK [6] = assay: Inhibition of cisplatin-induced apoptosis in MDCK cells assessed as reduction in caspase 3/7 activity at 30 to 125 uM pre-incubated for 1 hr before cisplatin challenge for 16 hrs by luminescence based assay; assay type: functional, cell-based; conditions: Canis lupus familiaris
MDCK [7] = assay: Inhibition of cisplatin-induced apoptosis in MDCK cells assessed as reduction in caspase 3/7 activity at 30 uM pre-incubated for 1 hr before cisplatin challenge for 16 hrs by luminescence based assay relative to control; assay type: functional; conditions: Canis lupus familiaris
MDCK [8] = assay: Inhibition of cisplatin-induced apoptosis in MDCK cells assessed as reduction in caspase 3/7 activity at 100 uM pre-incubated for 1 hr before cisplatin challenge for 16 hrs by luminescence based assay relative to control; assay type: functional; conditions: Canis lupus familiaris
[9] = molecular target: 2-amino-3-carboxymuconate-6-semialdehyde decarboxylase (Mus musculus) (UniProt Q8R519); assay: Inhibition of ACMSD in mouse AML12 cells assessed as induction of SOD2 activity incubated for 24 hrs; assay type: cell-based
Chain of 2-amino-3-carboxymuconate-6-semialdehyde decarboxylase (Mus musculus) (Q8R519 whole entry): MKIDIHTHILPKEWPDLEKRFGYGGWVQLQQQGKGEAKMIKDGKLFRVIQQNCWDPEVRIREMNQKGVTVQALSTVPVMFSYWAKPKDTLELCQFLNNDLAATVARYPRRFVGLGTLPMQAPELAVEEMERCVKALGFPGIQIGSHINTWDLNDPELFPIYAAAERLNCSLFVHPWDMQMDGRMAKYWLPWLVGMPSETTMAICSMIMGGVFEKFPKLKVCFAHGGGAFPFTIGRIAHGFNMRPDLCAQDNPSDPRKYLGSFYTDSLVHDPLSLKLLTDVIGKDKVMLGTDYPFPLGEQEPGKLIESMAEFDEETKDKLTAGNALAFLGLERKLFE

[10] = molecular target: 2-amino-3-carboxymuconate-6-semialdehyde decarboxylase (Mus musculus) (UniProt Q8R519); assay: Inhibition of ACMSD in C57BL/6J mouse primary hepatocytes assessed as induction of SOD2 activity incubated for 24 hrs; assay type: cell-based
[11] = molecular target: 2-amino-3-carboxymuconate-6-semialdehyde decarboxylase (Mus musculus) (UniProt Q8R519); assay: Inhibition of ACMSD in mouse AML12 cells assessed as increase in Sod2 mRNA expression incubated for 24 hrs by RT-qPCR analysis; assay type: cell-based
[12] = molecular target: 2-amino-3-carboxymuconate-6-semialdehyde decarboxylase (Mus musculus) (UniProt Q8R519); assay: Inhibition of ACMSD in mouse AML12 cells assessed as reduction in FoxO1 phosphorylation at Ser256 residue incubated for 24 hrs; assay type: cell-based
[13] = molecular target: 2-amino-3-carboxymuconate-6-semialdehyde decarboxylase (Homo sapiens) (UniProt Q8TDX5); assay: Inhibition of ACMSD in human primary hepatocytes assessed as increase in NAD\"\" concentration following compound replacement every 24 hrs by LC-MS/MS analysis relative to control; assay type: cell-based
[14] = molecular target: 2-amino-3-carboxymuconate-6-semialdehyde decarboxylase (Mus musculus) (UniProt Q8R519); assay: Inhibition of ACMSD in C57BL/6J mouse primary hepatocytes assessed as increase in Pgc1a mRNA expression incubated for 24 hrs by RT-qPCR analysis; assay type: cell-based
[15] = molecular target: 2-amino-3-carboxymuconate-6-semialdehyde decarboxylase (Mus musculus) (UniProt Q8R519); assay: Inhibition of ACMSD in C57BL/6J mouse primary hepatocytes assessed as increase in Sod2 mRNA expression incubated for 24 hrs by RT-qPCR analysis; assay type: cell-based
[16] = molecular target: 2-amino-3-carboxymuconate-6-semialdehyde decarboxylase (Mus musculus) (UniProt Q8R519); assay: Inhibition of ACMSD in C57BL/6J mouse primary hepatocytes assessed as increase in Sod1 mRNA expression incubated for 24 hrs by RT-qPCR analysis; assay type: cell-based

With `N#Cc1c(-c2cccs2)nc(SCc2cccc(-c3nn[nH]n3)c2)[nH]c1=O` the Activity [1] was “Non-Toxic” and the Activity (HepG2) was “Non-Toxic”.

In the case of `N#Cc1c(-c2ccc(Cl)cc2)nc(SCc2ccc(C(=O)O)cc2)[nH]c1=O`, the Activity [1] is reported as “Non-Toxic” and the Activity (HepG2) is reported as “Non-Toxic”.

In the case of `N#Cc1c(-c2nccs2)nc(SCc2cccc(C(=O)O)c2)[nH]c1=O`, the Activity [1] is reported as “Non-Toxic” and the Activity (HepG2) is reported as “Non-Toxic”.

With `O=C(O)c1cccc(CSc2nc(-c3ccccc3)c(Br)c(=O)[nH]2)c1` the Activity [1] was “Non-Toxic” and the Activity (HepG2) was “Non-Toxic”.

For `N#Cc1c(-c2cccs2)nc(SCc2cccc(C(=O)O)c2)[nH]c1=O`, the inhibition [2] was “Active”, the inhibition [3] was “Active” and the Activity [1] was “Non-Toxic”. For the same compound, the Activity (HepG2) was “Non-Toxic”.

In the case of `CCCCC(CC)COC(=O)c1ccccc1C(=O)O` (stereo not drawn), the inhibition [4] is reported as “Active”.

With `N#Cc1c(-c2cccs2)nc(SCc2cccc(CC(=O)O)c2)[nH]c1=O` the inhibition (MDCK [5]) was “Active”, the inhibition (MDCK [6]) was “Active” and the inhibition at 30 µM (MDCK [7]) was 29%. It also gave an inhibition at 100 µM (MDCK [8]) of 75%.

With `N#Cc1c(-c2ccccc2)nc(SCc2cccc(C(=O)O)c2)[nH]c1=O` the inhibition [2] was “Active”, the inhibition [9] was “Dose-dependent effect” and the inhibition [10] was “Dose-dependent effect”. The inhibition [11] was “Dose-dependent effect”, the Activity [1] was “Non-Toxic” and the Activity (HepG2) was “Non-Toxic”. The inhibition [12] was “Dose-dependent effect”.

For `N#Cc1c(-c2cccs2)nc(SCc2cccc(-c3noc(=O)[nH]3)c2)[nH]c1=O`, the Activity [1] was “Non-Toxic” and the Activity (HepG2) was “Non-Toxic”.

With `N#Cc1c(-c2cccs2)nc(SCc2cccc(-c3nnn[nH]3)c2)[nH]c1=O` the inhibition [9] was “Dose-dependent effect”, the inhibition [10] was “Dose-dependent effect” and the inhibition [13] was “Dose-dependent effect”. For the same compound, the inhibition [14] was “Dose-dependent effect”, the inhibition [15] was “Dose-dependent effect” and the inhibition [16] was “inactive”. The inhibition [12] was “Dose-dependent effect”.
